Source: patent publication US10039729B2, “Use of kukoamine A and kukoamine B” (Tianjin Chase Sun Pharmaceutical Co., Ltd., priority 2010, dated 2018)

System: RAW264.7 cells
Test: Release of TNF-α and IL-6 in RAW264.7 cells induced by LPS and CpG DNA (ELISA)
Type: cell-based, murine
Details: for release of TNF-α induced by CpG DNA / release of TNF-α induced by LPS: 0, 50 and 100 ng/ml, 4 h, p<0.01
Experimental: 6.1 Methods: RAW264.7 cells were diluted to 1×10^6/ml in DMEM supplemented with 10% (v/v) NCS, added into 96-well plates (200 μl per well), and cultured at 37° C. in a 5% CO2 humidified incubator for 4 h until cells adhere to the wall; culture medium were replaced with fresh culture medium, added with KA and KB (final concentrations of 0, 50 and 100 ng/ml), and added with LPS (final concentration of 100 ng/ml) and CpG DNA (final concentration of 10 μg/ml); at the same time, medium group without any reagent was established; subsequently, RAW264.7 cells were incubated for 4 h; and the supernatant was collected for further detection; detection of the TNF-α concentration was performed according to the manufacturer's instructions of ELISA kit. Result was expressed by means of mean±standard deviation.
12.1 Methods: According to the method in embodiment 6, KB was dissolved in DMEM supplemented with 10% (v/v) NCS, subsequently transferred into Culture medium of RAW264.7 cells to achieved final concentrations of 100 and 200 μM, added with LPS (final concentration of 100 ng/ml) and CpG DNA (final concentration of 10 μg/ml), incubated for 24 h, and then collected supernatant; the concentration of TNF-α and IL-6 of each group was detected according to the manufacturer's instructions of ELISA kit; result was expressed by means of mean±standard deviation.
13.1 Methods: According to the method in embodiment 6, KB and PMB were separately dissolved in DMEM supplemented with 10% (v/v) NCS, subsequently transferred into culture medium of RAW264.7 cells to achieved final concentrations of 50, 100 and 200 μM, and then added with LPS (final concentration of 100 ng/ml) and CpG DNA (final concentration of 10 μg/ml); RAW264.7 cells continued to be incubated; the supernatant were collected four hours later for TNF-α detection; the supernatant were collected 12 hours later for IL-6 detection; the concentration of TNF-α and IL-6 of each group was detected according to the manufacturer's instructions of ELISA kit; result was expressed by means of mean±standard deviation.
17.1 Methods: RAW264.7 cells was diluted to 1×10^6/ml in DMEM supplemented with 10% (v/v) NCS, transferred into 96-well plates (200 μl per well) and cultured at 37° C. in a 5% CO2 humidified incubator for 4 h.
(1) Observation of dose-dependent effects: For the purpose of experiment a medium group and a KB treatment group were established; each group included three repeated wells; medium group was added with no reagent; KB treatment group was added with KB (final concentrations of 12.5, 25, 50, 100 and 200 μM) in each well, and subsequently added with LPS (final concentration of 100 ng/ml) or CpG DNA (final concentration of 10 μg/ml); cells were cultured at 37° C. in a 5% CO2 humidified incubator for 12 h; the supernatant was collected for further detection; operations were performed according to the manufacturer's instructions of ELISA kit, and the result was expressed by means of mean±standard deviation.
(2) Observation of time-dependent effects: For the purpose of experiment a medium group, a stimulation group and a KB treatment group were established; each group contained three repeated wells; medium group was added with no reagent; stimulation group was added with LPS and CpG DNA; KB treatment group was added with LPS and CpG DNA, in the meantime added with KB (final concentration of 200 μM); cells continued to be cultured at 37° C. in a 5% CO2 humidified incubator; the supernatant at time point of 0, 2, 4, 8, 12 and 24 h after stimulation was separately collected for further detection; detection of TNF-α concentration was performed according to the manufacturer's instructions of ELISA kit, and the result was expressed by means of mean±standard deviation.
18.1 Methods: RAW264.7 cells were diluted to 1×10^6/ml in DMEM supplemented with 10% (v/v) NCS, transferred into 96-well plates (200 μl per well) and cultured at 37° C. in a 5% CO2 humidified incubator for 4 h. […]

[1] = CpG DNA 10 μg/ml, dose-dependent
[2] = 50, 100 and 200 μM, CpG DNA 10 μg/ml, TNF-α at 4 h, IL-6 at 12 h
[3] = 50, 100 and 200 μM, LPS 100 ng/ml, TNF-α at 4 h, IL-6 at 12 h

Molecule | release of TNF-α induced by CpG DNA [1] | release of TNF-α induced by LPS (LPS 100 ng/ml, dose-dependent) | release of TNF-α and IL-6 induced by CpG DNA [2] | release of TNF-α and IL-6 induced by LPS [3] | release of TNF-α and IL-6 induced by CpG DNA (100 and 200 μM, CpG DNA 10 μg/ml, 24 h) | release of TNF-α and IL-6 induced by LPS (100 and 200 μM, LPS 100 ng/ml, 24 h) | difference of RAW264.7 cells activation (TNF-α release) vs CpG DNA group (KB 12.5 μM, CpG DNA 10 μg/ml, 12 h, p>0.05) | difference of RAW264.7 cells activation (TNF-α release) vs LPS group (KB 12.5 μM, LPS 100 ng/ml, 12 h, p>0.05) | inhibitory activity on TNF-α release induced by CpG DNA (KB 25 μM and above, CpG DNA 10 μg/ml, 12 h, p<0.05 or p<0.01, dose-dependent) | inhibitory activity on TNF-α release induced by LPS (KB 25 μM and above, LPS 100 ng/ml, 12 h, p<0.05 or p<0.01) | TNF-α release, KB added before vs at the time of stimulation (KB 200 μM added 40 or 20 min before vs at 0 min, LPS 200 ng/ml or CpG DNA 20 μg/ml) | TNF-α levels in supernatant at various time points, CpG DNA (KB 200 μM, CpG DNA 10 μg/ml, 0, 2, 4, 8, 12 and 24 h) | release of TNF-α and IL-6 induced by LPS and CpG DNA (KB 200 μM, LPS 100 ng/ml, CpG DNA 10 μg/ml, selectivity panel) | TNF-α levels in supernatant at various time points, LPS (KB 200 μM, LPS 100 ng/ml, 0, 2, 4, 8, 12 and 24 h) | antagonistic effect on other irritant (Pam3CSK4, Poly I:C, TNF-α, IL-1β) (KB 200 μM, Pam3CSK4 10 μg/ml, Poly I:C 20 μg/ml, TNF-α 50 ng/ml, IL-1β 50 ng/ml) | release of TNF-α induced by LPS and CpG DNA under serum-free conditions (KB 50, 100 and 200 μM, serum-free DMEM, 12 h, dose-dependant) | inhibition on TNF-α release induced by LPS and CpG DNA, KB preincubated with stimulus (KB preincubated with LPS or CpG DNA for 20 min or 40 min before loading, 12 h)
O=C(CCc1ccc(O)c(O)c1)NCCCNCCCCNCCCNC(=O)CCc1ccc(O)c(O)c1 [KA, Kukoamine A] | inhibit the release of TNF-α | inhibit the release of TNF-α |  |  |  |  |  |  |  |  |  |  |  |  |  |  | 
NCCCN(CCCCNCCCNC(=O)CCc1ccc(O)c(O)c1)C(=O)CCc1ccc(O)c(O)c1 [KB, Kukoamine B] | inhibit the release of TNF-α | inhibit the release of TNF-α | inhibit the release of TNF-α and IL-6 | inhibit the release of TNF-α and IL-6 | inhibit the release of TNF-α and IL-6 | inhibit the release of TNF-α and IL-6 | no statistic significance | no statistic significance | significantly increased | significantly increased | no significant difference | all decreased | can only inhibit the release of TNF-α and IL-6 induced by LPS and CpG DNA | all decreased | no antagonistic effect on other irritant | still inhibit the release of TNF-α | significantly enhanced
polymyxin B [PMB, reference compound] |  |  | can only inhibit the release of TNF-α and IL-6 induced by LPS | inhibit the release of TNF-α and IL-6 |  |  |  |  |  |  |  |  |  |  |  |  | 
